Data: ChEMBL document CHEMBL6074694, “4-Oxo-β-lactams as Covalent Inhibitors of the Mitochondrial Intramembrane Protease PARL” (ACS Med Chem Lett, 2024)
Active and inactive are the calls of the source. The rule behind the calls is not given here.

Tests used:
[1] = target: T1, Presenilin-associated rhomboid-like protein, mitochondrial (Homo sapiens, UniProt Q9H300); assay: Inhibition of PARL (unknown origin) using Ac-RRRAVFKLA-aminomethyl coumarin as substrate preincubated for 30 mins followed by substrate addition and measured after 20 mins by plate reader assay
T1 sequence (Q9H300 whole entry): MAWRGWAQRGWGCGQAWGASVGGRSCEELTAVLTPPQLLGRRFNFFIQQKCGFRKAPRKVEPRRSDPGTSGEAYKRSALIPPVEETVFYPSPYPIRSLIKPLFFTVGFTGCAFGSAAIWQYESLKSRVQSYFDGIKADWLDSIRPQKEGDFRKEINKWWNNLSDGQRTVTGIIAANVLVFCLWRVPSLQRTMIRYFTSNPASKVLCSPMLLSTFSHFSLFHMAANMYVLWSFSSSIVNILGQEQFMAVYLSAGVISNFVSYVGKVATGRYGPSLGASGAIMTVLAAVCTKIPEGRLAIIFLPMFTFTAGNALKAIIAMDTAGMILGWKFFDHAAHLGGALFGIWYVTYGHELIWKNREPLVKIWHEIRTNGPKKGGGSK

[2] = Inhibition of recombinant human RHBDL2 using Ac-PVAKA-7-amino-4-methylcoumarin-3-(N-octyl)-acetamide as substrate preincubated for 30 mins followed by substrate addition and measured after 20 mins by plate reader assay
[3] = (§1) Inhibition of FLAG-tagged PARL (unknown origin) overexpressed in HEK293-T-REx cells assessed as reduction in substrate cleavage using PGAM5-Myc as substrate incubated for overnight by densitometry assay; assay type: cell-based, Homo sapiens
HEK293-T-REx = assay: as §1; assay type: cell-based; conditions: Homo sapiens

| Compound | IC50 [1] [nM] | other results |
| --- | --- | --- |
| CCC1(CC)C(=O)N(Cc2ccc(C(=O)OCc3ccccc3)cc2)C1=O | 160 | EC50 [3]: 220 nM |
| CCC1(Cc2ccccc2)C(=O)N(OS(=O)(=O)c2ccc(C)cc2)C1=O |  | inhibition (HEK293-T-REx): inactive |
| CCC1(CC)C(=O)N(c2ccc(CN(Cc3ccccc3)Cc3ccccc3)cc2)C1=O | 150 | EC50 [3]: 300 nM |
| CCC1(CC)C(=O)N(c2ccc(CN3CCN(C(c4ccc(F)cc4)c4ccc(F)cc4)CC3)cc2)C1=O | 2600 |  |
| CCC1(CC)C(=O)N(c2ccc(CN3CCc4cc5c(cc4C3)OCO5)cc2)C1=O | 560 |  |
| CCC1(CC)C(=O)N(c2ccc(CN3CCN(c4ccc(OC)cc4)CC3)cc2)C1=O | 380 |  |

Second part, led by results:

| IC50 [1] [nM] | Compound | other results |
| --- | --- | --- |
| 490 | CCC1(CC)C(=O)N(c2ccc(CN3CCN(c4ccc(Br)cc4)CC3)cc2)C1=O | IC50 [2]: 21 µM |
| 890 | CCC1(CC)C(=O)N(c2cccc(CN3CCN(c4ccc(Br)cc4)CC3)c2)C1=O |  |
| 1930 | CCC1(CC)C(=O)N(c2cccc(CN3CCN(Cc4ccc(OC)cc4)CC3)c2)C1=O |  |
| 480 | CCC1(CC)C(=O)N(c2ccc(CN3CCN(c4cc(C)nc5ccc(Br)cc45)CC3)cc2)C1=O |  |
| 260 | CCC1(CC)C(=O)N(c2ccc(CN3CCN(c4ccnc5ccc(Br)cc45)CC3)cc2)C1=O | IC50 [2]: 35 µM |
| 1430 | CCC1(CC)C(=O)N(c2ccc(CN3CCN(Cc4ccc(Br)cc4)CC3)cc2)C1=O | IC50 [2]: 1.9 µM |
| 1000 | CCC1(CC)C(=O)N(c2cccc(CN3CCN(Cc4ccc(Br)cc4)CC3)c2)C1=O |  |
